PubChem BioAssay AID1972 (The Scripps Research Institute Molecular Screening Center, 2009)

System: IEC-6 rat intestinal cells viability, luminescence
Test: PubChem AID 1972

Compound: COc1cc2c(c(OC)c1OC)-c1ccc(O)c(=O)cc1C(NC(C)=O)CC2 (stereo unspecified)
- IC50: 121 nM
